Data as given in the supplement of paper PMC10307832.

Columns and labels:
Assay in all cases: relative viability (nuclei count vs DMSO), 5 days (fraction); higher = more cells survive
[1] = compound: CCN1C(=O)C2=CC(=C(N=C2N(C1=O)C3CC3)N)C(=O)N + Cc1nc(NC(=O)N2CCC[C@H]2C(N)=O)sc1-c1ccnc(C(C)(C)C(F)(F)F)c1 [Alpelisib] (partner 2 µM)
How it was run: (§1)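 Relative viability divides the nuclei count in treated wells by that in vehicle wells. Lung cancer cell lines were seeded in 1536-well plates, dosed by pin tool the next day, and fixed and stained after 5 days in one step with final 0.05% Triton X-100, 1% formaldehyde and 1 ug/ml Hoechst. Dosing was a single drug or a fixed anchor-drug dose plus five library-drug doses (not always all listed) in √10 steps, and values are medians of duplicate plates imaged at 4×.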

[2] = compound: CCN1C(=O)C2=CC(=C(N=C2N(C1=O)C3CC3)N)C(=O)N + N=C(N)NC(=N)NCCc1ccccc1 [Phenformin] (partner 250 µM)
How it was run: as §1

[3] = compound: CCN1C(=O)C2=CC(=C(N=C2N(C1=O)C3CC3)N)C(=O)N + Cc1nc(Nc2ncc(C(=O)Nc3c(C)cccc3Cl)s2)cc(N2CCN(CCO)CC2)n1 [Dasatinib] (partner 0.075 µM)
How it was run: as §1

[4] = compound: CCN1C(=O)C2=CC(=C(N=C2N(C1=O)C3CC3)N)C(=O)N + CS(=O)(=O)CCNCc1ccc(-c2ccc3ncnc(Nc4ccc(OCc5cccc(F)c5)c(Cl)c4)c3c2)o1 [Lapatinib] (partner 2 µM)
How it was run: as §1

[5] = compound: CCN1C(=O)C2=CC(=C(N=C2N(C1=O)C3CC3)N)C(=O)N + CS(=O)(=O)N1CCN(Cc2cc3nc(-c4cccc5[nH]ncc45)nc(N4CCOCC4)c3s2)CC1 [Pictilisib] (partner 1 µM)
How it was run: as §1

Row | Cell Line | relative viability ([1]; first compound 0.253 µM) | relative viability ([1]; first compound 0.8 µM) | relative viability ([1]; first compound 2.53 µM) | relative viability ([1]; first compound 8 µM) | relative viability ([2]; first compound 0.253 µM) | relative viability ([2]; first compound 0.8 µM) | relative viability ([2]; first compound 2.53 µM) | relative viability ([2]; first compound 8 µM) | relative viability ([3]; first compound 0.253 µM) | relative viability ([3]; first compound 0.8 µM) | relative viability ([3]; first compound 2.53 µM) | relative viability ([3]; first compound 8 µM) | relative viability ([4]; first compound 0.253 µM) | relative viability ([4]; first compound 0.8 µM) | relative viability ([4]; first compound 2.53 µM) | relative viability ([4]; first compound 8 µM) | relative viability ([5]; first compound 0.253 µM) | relative viability ([5]; first compound 0.8 µM) | relative viability ([5]; first compound 2.53 µM) | relative viability ([5]; first compound 8 µM)
1 | 201T | 1.04 | 1.02 | 1.04 | 1.04 | 0.478 | 0.474 | 0.442 | 0.47 | 0.559 | 0.518 | 0.574 | 0.496 | 1.03 | 0.949 | 0.967 | 0.98 | 0.688 | 0.621 | 0.722 | 0.635
2 | A549 | 0.698 | 0.858 | 0.746 | 0.931 |  | 0.22 | 0.155 | 0.155 |  |  |  |  | 0.981 | 0.914 | 0.94 | 1.1 | 0.557 | 0.553 | 0.41 | 0.592
3 | A-427 | 1.02 | 1.04 | 1.04 | 1.09 | 0.376 | 0.307 | 0.376 | 0.343 | 0.729 | 0.825 | 0.744 | 0.779 | 1.06 | 0.963 | 1.05 | 1.01 | 0.724 | 0.578 | 0.645 | 0.727
4 | ABC-1 | 1.23 | 0.751 | 1.11 | 0.969 | 0.24 | 0.22 | 0.274 | 0.25 | 0.559 | 0.473 | 0.565 | 0.56 | 1.08 | 1.4 | 0.969 | 1.29 | 0.761 | 0.667 | 0.82 | 0.699
5 | BEN | 1.07 | 1.02 | 0.929 | 1.01 | 0.251 | 0.273 | 0.264 | 0.284 | 0.368 | 0.267 | 0.313 | 0.356 | 0.776 | 0.638 | 0.827 | 0.697 | 0.539 | 0.522 | 0.62 | 0.519
6 | CAL-12T | 1.07 | 1.07 | 0.964 | 1.21 | 0.565 | 0.61 | 0.49 | 0.547 | 0.466 | 0.377 | 0.452 | 0.462 | 0.528 |  | 0.716 | 0.859 | 0.431 |  | 0.437 | 0.541
7 | COR-L23 | 0.775 | 0.714 | 0.816 | 0.944 | 0.429 | 0.442 | 0.435 | 0.423 | 0.573 | 0.562 | 0.456 | 0.531 | 0.927 | 1.03 | 0.745 | 1.04 | 0.814 | 0.751 | 0.729 | 0.947
8 | COR-L 105 | 1.08 | 0.959 | 0.833 | 0.853 | 0.452 | 0.391 | 0.498 | 0.379 | 0.358 | 0.261 | 0.264 | 0.304 | 0.308 | 0.339 | 0.424 | 0.398 | 0.453 | 0.366 | 0.412 | 0.369
9 | ChaGo-K-1 |  |  |  |  | 0.485 | 0.446 | 0.561 | 0.472 | 0.6 | 0.664 | 0.614 | 0.527 |  |  |  |  | 0.916 | 0.563 | 0.91 | 0.766
10 | EKVX | 0.975 | 0.896 | 0.821 | 0.851 | 0.256 | 0.248 | 0.316 | 0.231 | 0.496 | 0.479 | 0.461 | 0.469 | 0.23 | 0.25 | 0.222 | 0.196 | 0.439 | 0.411 | 0.388 | 0.438
11 | EMC-BAC-2 | 0.808 | 0.743 | 0.725 | 0.796 | 0.597 | 0.478 | 0.478 | 0.56 | 0.35 | 0.305 | 0.328 | 0.318 | 0.937 | 0.849 | 0.859 | 0.888 | 0.642 | 0.536 | 0.456 | 0.584
12 | EPLC-272H | 0.801 | 0.868 | 0.901 | 0.942 | 0.322 | 0.32 | 0.357 | 0.32 | 0.425 | 0.394 | 0.377 | 0.431 | 0.834 | 0.867 | 0.932 | 1.13 | 0.296 | 0.288 | 0.389 | 0.333
13 | H3255 | 0.653 | 0.609 | 0.631 | 0.624 | 0.427 | 0.306 | 0.315 | 0.359 | 0.403 | 0.444 | 0.425 | 0.347 | 0.246 | 0.216 | 0.192 | 0.258 | 0.509 | 0.47 | 0.504 | 0.513
14 | HARA | 0.817 | 0.787 | 0.79 | 0.964 | 0.433 | 0.478 | 0.414 | 0.401 | 0.321 | 0.234 | 0.233 | 0.246 | 0.809 | 0.688 | 0.839 | 0.69 | 0.403 | 0.36 | 0.379 | 0.486
15 | HCC-15 | 0.921 | 0.959 | 0.873 | 0.986 | 0.456 | 0.472 | 0.473 | 0.44 | 0.634 | 0.598 | 0.61 | 0.598 | 0.816 | 0.903 | 0.782 | 0.859 | 0.699 | 0.79 | 0.793 | 0.801
16 | HCC-44 | 0.829 | 0.802 | 0.778 | 0.784 | 0.296 | 0.18 | 0.277 | 0.185 |  |  |  |  | 0.927 | 1.01 | 1.03 | 0.986 | 0.599 | 0.6 | 0.564 | 0.641
17 | HCC-78 | 0.299 | 0.337 | 0.31 | 0.467 | 0.747 |  | 0.75 | 0.685 | 0.368 |  | 0.595 | 0.365 | 0.581 | 0.626 | 0.937 | 0.719 | 0.223 | 0.173 | 0.201 | 0.205
